“Also recorded” adds a separate entry of the source.

Holding throughout (format): cell-based, human
Assay [1] deals with peptide-pulsed A24LCL cells. The assay is described as follows: IFN-gamma ELISPOT assay on CTLs induced with MYBL2 peptides. As to conditions: against peptide-pulsed target cells vs control without peptide, day 21 after 3rd stimulation. The text has this:
(§1) Monocyte-derived dendritic cells (DCs) were used as antigen-presenting cells (APCs) to induce cytotoxic T lymphocyte (CTL) responses against peptides presented on human leukocyte antigen (HLA). DCs were generated in vitro as described elsewhere (Nakahara S et al., Cancer Res 2003 Jul. 15, 63(14): 4112-8). Specifically, peripheral blood mononuclear cells (PBMCs) isolated from a normal volunteer (HLA-A*2402 positive) by Ficoll-Plaque (Pharmacia) solution were separated by adherence to a plastic tissue culture dish (Becton Dickinson) so as to enrich them as the monocyte fraction. The monocyte-enriched population was cultured in the presence of 1000 U/ml of granulocyte-macrophage colony-stimulating factor (GM-CSF) (R&D System) and 1000 U/ml of interleukin (IL)-4 (R&D System) in AIM-V Medium (Invitrogen) containing 2% heat-inactivated autologous serum (AS). After 7 days of culture, the cytokine-induced DCs were pulsed with 20 mcg/ml of each of the synthesized peptides in the presence of 3 mcg/ml of beta2-microglobulin for 3 hr at 37 degrees C. in AIM-V Medium. The generated cells appeared to express DC-associated molecules, such as CD80, CD83, CD86 and HLA class II, on their cell surfaces (data not shown). These peptide-pulsed DCs were then inactivated by Mitomycin C (MMC) (30 mcg/ml for 30 min) and mixed at a 1:20 ratio with autologous CD8+ T cells, obtained by positive selection with CD8 Positive Isolation Kit (Dynal). These cultures were set up in 48-well plates (Corning); each well contained 1.5×10^4 peptide-pulsed DCs, 3×10^5 CD8+ T cells and 10 ng/ml of IL-7 (R&D System) in 0.5 ml of AIM-V/2% AS medium. Three days later, these cultures were supplemented with IL-2 (CHIRON) to a final concentration of 20 IU/ml. On day 7 and 14, the T cells were further stimulated with the autologous peptide-pulsed DCs. The DCs were prepared each time by the same way described above. CTL was tested against peptide-pulsed A24LCL cells after the 3rd round of peptide stimulation on day 21 (Tanaka H et al., Br J Cancer 2001 Jan. 5, 84(1): 94-9; Umano Y et al., Br J Cancer 2001 Apr. 20, 84(8): 1052-7; Uchida N et al., Clin Cancer Res 2004 Dec. 15, 10(24): 8577-86; Suda T et al., Cancer Sci 2006 May, 97(5): 411-9; Watanabe T et al., Cancer Sci 2005 August, 96(8): 498-506).
(§2) To examine specific CTL activity, interferon (IFN)-gamma enzyme-linked immunospot (ELISPOT) assay and IFN-gamma enzyme-linked immunosorbent assay (ELISA) were performed. Specifically, peptide-pulsed A24LCL (1×10^4/well) was prepared as stimulator cells. Cultured cells in 48 wells were used as responder cells. IFN-gamma ELISPOT assay and IFN-gamma ELISA assay were performed under manufacture procedure.

The subject of assay [2] is peptide-pulsed A24LCL cells. Nature of the assay: IFN-gamma ELISA assay on established CTL lines. As to conditions: target cells pulsed with corresponding peptide vs target cells without peptide pulse. On the procedure: CTLs were expanded in culture using the method similar to the one described by Riddell et al. (Walter E A et al., N Engl J Med 1995 Oct. 19, 333(16): 1038-44; Riddell S R et al., Nat Med 1996 February, 2(2): 216-23). A total of 5×10^4 CTLs were suspended in 25 ml of AIM-V/5% AS medium with 2 kinds of human B-lymphoblastoid cell lines, inactivated by MMC, in the presence of 40 ng/ml of anti-CD3 monoclonal antibody (Pharmingen). One day after initiating the cultures, 120 IU/ml of IL-2 were added to the cultures. The cultures were fed with fresh AIM-V/5% AS medium containing 30 IU/ml of IL-2 on days 5, 8 and 11 (Tanaka H et al., Br J Cancer 2001 Jan. 5, 84(1): 94-9; Umano Y et al., Br J Cancer 2001 Apr. 20, 84(8): 1052-7; Uchida N et al., Clin Cancer Res 2004 Dec. 15, 10(24): 8577-86; Suda T et al., Cancer Sci 2006 May, 97(5): 411-9; Watanabe T et al., Cancer Sci 2005 August, 96(8): 498-506).
as §2

Assay [3] concerns CD8+ T cells stimulated with peptide-pulsed DCs (HLA-A*2402 positive). Nature of the assay: In vitro CTL induction and establishment of CTL lines. As to conditions: cells of positive wells expanded.
Description: as §1, with “CTL was tested against peptide-pulsed A24LCL cells after the 3rd round of peptide stimulation on day 21 (Tanaka H et al., Br J Cancer 2001 Jan. 5, 84(1): 94-9; Umano Y et al., Br J Cancer 2001 Apr. 20, 84(8): 1052-7; Uchida N et al., Clin Cancer Res 2004 Dec. 15, 10(24): 8577-86; Suda T et al., Cancer Sci 2006 May, 97(5): 411-9; Watanabe T et al., Cancer Sci 2005 August, 96(8): 498-506).” left out

For “QFGQQDWKFL [SEQ ID NO: 12, 10-mer peptide derived from MYBL2, start position 48]”, the “IFN-gamma production of peptide-stimulated CTLs (ELISPOT)” value (from here on “IFN-gamma production … (ELISPOT)”) in assay [1] (listed as MYBL2-A24-10-48) is listed as “typical negative data of CTL response; also recorded: no specific IFN-gamma production was detected”. Moreover, the “IFN-gamma production of established CTL lines (ELISA)” value (“IFN-gamma production … (ELISA)” for short) in assay [2] (listed as MYBL2-A24-10-48) was “typical negative data of CTL response; also recorded: no specific IFN-gamma production against peptide-pulsed target cells was observed”.

Regarding “EYRLDGHTI [SEQ ID NO: 2, 9-mer peptide derived from MYBL2, start position 370]”, the “IFN-gamma production … (ELISPOT)” value in assay [1] (listed as MYBL2-A24-9-370) is “potent IFN-gamma production as compared to the control wells; also recorded: potent IFN-gamma production as compared with the control”. Also, the “IFN-gamma production … (ELISA)” value was “potent IFN-gamma production against the target cells pulsed with corresponding peptide” in assay [2] and “potent IFN-gamma production as compared with the control” in assay [2] (listed as MYBL2-A24-9-370). Besides, the “Establishment of CTL lines” value in assay [3] was “expanded and established CTL lines”.

“KPPVYLLLEL [SEQ ID NO: 13, 10-mer peptide derived from MYBL2, start position 197]”: the “IFN-gamma production … (ELISPOT)” value in assay [1] (listed as MYBL2-A24-10-197) was “potent IFN-gamma production as compared to the control wells; also recorded: potent IFN-gamma production as compared with the control”. Further, the “IFN-gamma production … (ELISA)” value is “potent IFN-gamma production against the target cells pulsed with corresponding peptide” in assay [2] and “potent IFN-gamma production as compared with the control” in assay [2] (listed as MYBL2-A24-10-197). Besides, the “Establishment of CTL lines” value in assay [3] is “expanded and established CTL lines”.

As for “KYGTKQWTL [SEQ ID NO: 1, 9-mer peptide derived from MYBL2, start position 100]”, in assay [1] (listed as MYBL2-A24-9-100), the “IFN-gamma production … (ELISPOT)” value is listed as “potent IFN-gamma production as compared to the control wells; also recorded: potent IFN-gamma production as compared with the control”. Also, the “IFN-gamma production … (ELISA)” value was “potent IFN-gamma production against the target cells pulsed with corresponding peptide” in assay [2] and “potent IFN-gamma production as compared with the control” in assay [2] (listed as MYBL2-A24-9-100). For the same sequence, the “Establishment of CTL lines” value in assay [3] was “expanded and established CTL lines”.
